Test results from patent US20240156893A1 (priority 2021, published 2024).
Where “and” joins values, the source holds several entries; their conditions need not be identical. Equal entries are not always repeated.

Experiments:
[1] = tested on: SARS-CoV-2 isolate England/02/2020; format: cell-based; conditions: SARS-CoV-2, contact time 1 h at RT; 1% LTX-12 (w/v) in PBS or 0.2% Triton in PBS; Vero cells
Vero cells = assay: Parallel residual cytotoxicity test without virus on Vero assay cells (Example 5); format: cell-based, African green monkey; conditions: after filtration, no virus, 1% LTX-12 or 0.2% Triton
Method: (§1) Appropriate controls were also performed.

[2] = tested on: Influenza A strain A/WSN/33 (H1N1); format: cell-based, Influenza A virus
MDCK-II cells [3] = assay: Parallel residual cytotoxicity test without virus on MDCK-II assay cells (Example 6); format: cell-based, canine; conditions: after filtration, no virus, 1% LTX-7 or 0.2% Triton X-100
Method: as §1

[4] = tested on: Lenti virus-like particle expressing VSV-G
[5] = tested on: Influenza A virus (IAV, A/WSN/33); format: cell-based
MDCK-II cells [6] = assay: Parallel residual cytotoxicity test without virus on MDCK-II assay cells (Example 2); format: cell-based, canine; conditions: 1% LTX-109, after filtration, no virus
Method: as §1

[7] = tested on: Respiratory Syncytial Virus (RSV); assay: TCID50 virucidal assay, LTX-109 against RSV on Hep2 cells; format: cell-based; conditions: for TCID50/ml ± SEM (average virus titre recovered): 1 h incubation, Hep2 cells
Method: The experiment was performed in triplicates.
as §1

SARS-CoV-2 = format: cell-based
Hep2 cells = conditions: 0.1% LTX-109, after filtration, no virus
Method: After 1 hour, the incubation was stopped by adding an excess of cold media, and the formulation was physically separated from the virus through a filter to reduce cytotoxicity on the assay cells. […] Infectious virus was quantified through a serial dilution (a series of ten-fold dilutions) on monolayers of Hep2 cells in microtitre plates (Hep2 cells are mammalian cells capable of displaying a cytopathic effect (CPE) upon viral infection). The starting solution for the serial dilution (i.e. the neat (or undiluted) solution) was obtained by re-suspending the virus that was separated via the filtration step in 1 ml of media. For each dilution of the virus in the dilution series, eight wells of the microtitre plate were tested (i.e. each dilution of virus was applied to eight separate wells, each well containing a Hep2 cell monolayer). Appropriate controls were also performed. […] The TCID50 (TCID50/ml) assay (Tissue Culture Infectious Dose 50 assay) is a type of endpoint dilution assay that is well known in the art and routinely used to quantitatively measure virus titres. TCID50/ml provides a measure of infectious units of virus/ml. “/ml” refers to/ml of the starting solution (i.e. neat/undiluted solution) mentioned above. […]

`CC(C)(C)c1cc(C(C)(C)C)c2[nH]c(C(C)(C)C)c(CC(NC(=O)C(N)CCCCN)C(=O)NC(CCCCN)C(=O)NCCc3ccccc3)c2c1` (stereo not drawn) [LTX-12, Lys-Tbt-Lys-NH—CH2—CH2-Ph] was tested, and the “TCID50/ml ± SEM (average virus titre recovered)” value (shortened to “TCID50/ml ± SEM”) [1] was 1.58E+02 TCID50/ml and 1.58E+02 ± 0.00E+00 TCID50/ml and the “Cytotoxicity on assay cells” value (Vero cells) was “no significant cytotoxicity”.
For `N=C(N)NCCCC(N)C(=O)NC(Cc1ccc(-c2ccc3ccccc3c2)cc1)C(=O)NC(CCCNC(=N)N)C(=O)NCCc1ccccc1` (centres unmarked) [LTX-7, Arg-Phe(4-(2-Naphthyl))-Arg-NH—CH2—CH2-Ph], the “Rounded % (reduction)” value ([2]; contact time 1 h, 1% LTX-7 or 0.2% Triton X-100) was 99.99%, the “TCID50/ml ± SEM” value ([2]; contact time 1 h at RT, 1% LTX-7 (w/v) in PBS or 0.2% Triton X-100 in PBS, MDCK-II cells) was 1.58E+01 TCID50/ml and 1.58E+01 ± 0.00E+00 TCID50/ml and the “Cytotoxicity on assay cells (dilution at which seen)” value (MDCK-II cells [3]) was “neat”.
With `CC(C)(C)c1cc(C(C)(C)C)c2[nH]c(C(C)(C)C)c(CC(NC(=O)C(N)CCCNC(=N)N)C(=O)NC(CCCNC(=N)N)C(=O)NCCc3ccccc3)c2c1` (centres unmarked) [LTX-109] the “Effect on envelope of Lenti-virus-like particles (electron microscopy)” value [4] was “disrupted (or dissolved) envelope”, the “TCID50/ml ± SEM” value ([5]; 1% LTX-109 (w/v) in PBS, 1 h incubation, MDCK-II cells) was 1.58E+01 TCID50/ml and 1.58E+01 ± 0.00E+00 TCID50/ml and the “Log (virus titre)” value ([5]; 1% LTX-109, 1 h) was 1.20 Log. For the same compound, the “Percentage (decrease in infectivity vs PBS control)” value ([5]; 1% LTX-109, 1 h) was 99.9% and 99.969%, the “With Filtration: cytotoxicity on assay cells (dilution up to which seen)” value (MDCK-II cells [6]) was “only up to the first dilution” and the “TCID50/ml ± SEM” value ([7]; 0.1% LTX-109 (w/v) in PBS) was 8.76E+01 TCID50/ml and 8.76E+01 ± 4.11E+01 TCID50/ml. The “Log (virus titre)” value ([7]; 0.1% LTX-109, 1 h) was 1.78 Log, the “Percentage (decrease in infectivity vs PBS control)” value ([7]; 0.1% LTX-109, 1 h) was 99.9% and 99.97% and the “TCID50/ml ± SEM” value ([7]; 1% LTX-109 (w/v) in PBS) was 1.58E+02 TCID50/ml and 1.58E+02 ± 0.00E+00 TCID50/ml. For the same compound, the “Log (virus titre)” value ([7]; 1% LTX-109, 1 h) was 2.20 Log, the “Percentage (decrease in infectivity vs PBS control)” value ([7]; 1% LTX-109, 1 h) was 99.9% and 99.949% and the “TCID50/ml ± SEM” value (SARS-CoV-2; SARS-CoV-2, 1% LTX-109 (w/v) in PBS, 1 h incubation, Vero cells) was 1.99E+02 TCID50/ml and 1.99E+02 ± 4.11E+01 TCID50/ml. For the same compound, the “Log (virus titre)” value (SARS-CoV-2; SARS-CoV-2, 1% LTX-109, 1 h) was 2.28 Log, the “Percentage (decrease in infectivity vs PBS control)” value (SARS-CoV-2; SARS-CoV-2, 1% LTX-109, 1 h) was 99.99% and 99.995% and the “With Filtration: cytotoxicity on assay cells” value (Hep2 cells) was “No cytotoxicity”.
